# In patent publication US11702409B2, “Pyrazolyl derivatives useful as anti-cancer agents” (NOVARTIS AG, priority 2019, dated 2023):
# Molecular target: KRasG12C (M1-K169, biotinylated on the N-terminus) (Homo sapiens (Human), UniProt P01116, G12C)
# Assay: Covalent competition assay (scintillation proximity assay, competition with radiolabeled covalent probe Compound B)
# Type: binding
# Settings: in vitro KRASG12C activity; 10 nM KRasG12C:GDP, 25 nM radio-ligand and 475 nM unlabelled ligand, incubated 2 hours; read-out: Covalent Competition Assay IC50
# Method: The cells were lysed by 4 passages through an Avestin Emulsiflex at about 20000 psi and insoluble debris removed by centrifugation and filtered through a 0.45 μm Durapore membrane (Millipore). […] The protein in the flow through was subjected to a final polishing step on a HiLoad 16/60 Superdex 200 prep grade size-exclusion column pre-equilibrated with SEC-buffer (20 mM HEPES pH 7.4, 150 mM NaCl, 5 mM MgCl2, 1 μM GDP).
# A scintillation proximity assay (SPA) was used to determine the potency of the compounds. This assay measures the ability of the test compound to compete with the radiolabeled covalent probe for binding to and covalently modify KRASG12C.
# A serial dilution of the compounds to be tested is mixed with a fixed concentration of the radiolabeled covalent probe before incubation with KRASG12C:GDP as described below.
# The reaction was started by addition of KRasG12C (M1-K169, biotinylated on the N-terminus) to the compounds and incubated for 2 hours with continuous agitation allowing for full modification of KRasG12C with probe or test compounds. […] The assay buffer contained 20 mM Tris-HCl pH 7.5 (Invitrogen), 150 mM NaCl (Sigma Aldrich), 0.1 mM MgCl2 (Sigma Aldrich), and 0.01% Tween-20 (Sigma Aldrich).
# Evaluation was carried out using assay data analysis software (such as the standard Novartis in-house Helios software application, Novartis Institutes for BioMedical Research, unpublished) using the methods described in Formenko et al., Robust Regression for high-throughput screening.
# Evaluation can also be carried out using commercially available software which is designed to derive IC50 values using 4-parameter fits (e.g. GraphPad Prism, XL fit).
row,SMILES,IC50
1,"C=CC(=O)N1CC2(CC(n3nc(-c4ccc5c(c4)N(C)CCO5)c(-c4c(Cl)c(C)cc5[nH]ncc45)c3C)C2)C1 (single isomer, unassigned) [Example 31b]",0.374 µM
2,"C=CC(=O)N1CC2(CC(n3nc(-c4ccc(OCCOC)cc4F)c(-c4c(Cl)c(C)cc5[nH]ncc45)c3C)C2)C1 (single isomer, unassigned) [Example 60b, 1-(6-(4-(5-chloro-6-methyl-1H-indazol-4-yl)-3-(2-fluoro-4-(2-methoxyethoxy)phenyl)-5-methyl-1H-pyrazol-1-yl)-2-azaspiro[3.3]heptan-2-yl)prop-2-en-1-one]",> 5 µM
3,"C=CC(=O)N1CC2(CC(n3nc(-c4ccnn4CC4CC4)c(-c4c(Cl)c(C)cc5[nH]ncc45)c3C)C2)C1 (single isomer, unassigned) [Example 45b, 1-(6-(4-(5-chloro-6-methyl-1H-indazol-4-yl)-2′-(cyclopropylmethyl)-5-methyl-1H,2′H-[3,3′-bipyrazol]-1-yl)-2-azaspiro[3.3]heptan-2-yl)prop-2-en-1-one]",> 50 µM
4,"C=CC(=O)N1CC2(CC(n3nc(-c4ccc(C(=O)NCCOC)nc4)c(-c4c(Cl)c(C)cc5[nH]ncc45)c3C)C2)C1 (single isomer, unassigned) [Example 64b]",24.5 µM
5,"C=CC(=O)N1CC2(CC(n3nc(-c4cnc(N)c(F)c4)c(-c4c(Cl)c(C)cc5[nH]ncc45)c3C)C2)C1 (single isomer, unassigned) [Example 20b]",12.5 µM
6,"C=CC(=O)N1CC2(CC(n3nc(-c4ccc(C#N)nc4)c(-c4c(Cl)c(C)cc5[nH]ncc45)c3C)C2)C1 (single isomer, unassigned) [Example 11b]",> 50 µM
7,"C=CC(=O)N1CC2(CC(n3nc(-c4ccnc(C#N)c4)c(-c4c(Cl)c(C)cc5[nH]ncc45)c3C)C2)C1 (single isomer, unassigned) [Example 9a]",0.743 µM
8,"C=CC(=O)N1CC2(CC(n3nc(-c4ccccn4)c(-c4c(Cl)c(C)cc5[nH]ncc45)c3C)C2)C1 (single isomer, unassigned) [Example 46b, 1-(6-(4-(5-chloro-6-methyl-1H-indazol-4-yl)-5-methyl-3-(pyridin-2-yl)-1H-pyrazol-1-yl)-2-azaspiro[3.3]heptan-2-yl)prop-2-en-1-one]",> 50 µM
9,"C=CC(=O)N1CC2(CC(n3nc(-c4cccnc4)c(-c4c(Cl)ccc5[nH]ncc45)c3C)C2)C1 (single isomer, unassigned) [Example 19a]",1.9 µM

# Stronger by IC50, values ahead:
row,IC50,SMILES
1,0.253 µM,"C=CC(=O)N1CC2(CC(n3nc(-c4ccn5ccnc5c4)c(-c4c(Cl)c(C)cc5[nH]ncc45)c3C)C2)C1 (single isomer, unassigned) [Example 33a]"
2,0.092 µM,"C=CC(=O)N1CC2(CC(n3nc(-c4ccc(N)nc4)c(-c4c(Cl)c(C)cc5[nH]ncc45)c3C)C2)C1 [Example 79a, 1-(6-(3-(6-aminopyridin-3-yl)-4-(5-chloro-6-methyl-1H-indazol-4-yl)-5-methyl-1H-pyrazol-1-yl)-2-azaspiro[3.3]heptan-2-yl)prop-2-en-1-one]"
3,0.035 µM,"C=CC(=O)N1CC2(CC(n3nc(-c4ccc(N5CCS(=O)(=O)CC5)cc4)c(-c4c(Cl)c(C)cc5[nH]ncc45)c3C)C2)C1 (single isomer, unassigned) [Example 50a, 1-(6-(4-(5-chloro-6-methyl-1H-indazol-4-yl)-3-(4-(1,1-dioxidothiomorpholino)phenyl)-5-methyl-1H-pyrazol-1-yl)-2-azaspiro[3.3]heptan-2-yl)prop-2-en-1-one]"
4,0.032 µM,"C=CC(=O)N1CC2(CC(n3nc(-c4ccc(COCCOC)cc4)c(-c4c(Cl)c(C)cc5[nH]ncc45)c3C)C2)C1 (single isomer, unassigned) [Example 39a]"
5,0.016 µM,"C=CC(=O)N1CC2(CC(n3nc(-c4ccc5c(cnn5CCN(C)C)c4)c(-c4c(Cl)c(C)cc5[nH]ncc45)c3C)C2)C1 (single isomer, unassigned) [Example 15a]"
